Measurements taken from patent US7862844B2, “Taste improving substances” (Quest International Services B.V., priority 2005, dated 2011).

Experiments:
[1] = tasting different fractions of the Example 1 product (LC-MS, 1H NMR identification); conditions: fractions of the lactic acid/GMP reaction product of Example 1
Experimental: 1000 g of lactic acid (about 90% pure), 50 g of NaCl and 250 g of GMP were thoroughly mixed. The mixture was heated and stirred at 100° C. for 4 hour. The mixture was cooled to 60° C. and 4000 g of ethyl acetate was added. The mixture was stirred for 1 h. Next, the mixture was filtered over a glass filter and the filter residue was washed with 1000 g ethyl acetate. Thus, 362 g of an almost white powder was obtained. The main taste components of the obtained product were identified by LC-MS and tasting different fractions.

[2] = samples tasted by a professional panel
Experimental: The following samples were prepared:
A: 0.6% NaCl and 0.03% MSG
B: 0.01% Fraction 2 as obtained in example 1
C: 0.6% NaCl and 0.03% MSG and 0.5 ppt Fraction B as obtained in example 1
D: 0.6% NaCl and 0.03% MSG and 0.4 ppb Fraction A as obtained in example 1
The samples were tasted by a professional panel and described as follows: […]

| Substance | taste of the fractions containing the substance [1] | taste description by professional panel ([2]; sample B: 0.01% of the fraction alone) | taste description by professional panel ([2]; sample C: 0.5 ppt of the fraction with 0.6% NaCl and 0.03% MSG (base alone: salty, umami)) | taste description by professional panel ([2]; sample D: 0.4 ppb of the fraction with 0.6% NaCl and 0.03% MSG (base alone: salty, umami)) |
| --- | --- | --- | --- | --- |
| N-Lactoyl-GMP [Fraction B] | “long-lasting” and “kokumi” | mild acidic, late onset umami, kokumi, full, sweet, very lingering | salty, umami, full, mouthfeel, kokumi, salivating and very lingering | – |
| O-Lactoyl-GMP [Fraction A] | “long-lasting” and “kokumi” | – | – | salty, umami, full, after taste and lingering |
